# Measured values reported in patent US7078403B1, “Antiviral agents” (Biota Scientific Management Pty Ltd., priority 1999, dated 2006).
# Test system: HRV type 1A
# Test: Inhibition of viral cytopathic effect (CPE), visual scoring or neutral red, HRV type 1A in MRC-5 cells
# Format: cell-based, human rhinovirus
# Conditions: HRV type 1A in MRC-5 cells, CPE inhibition
row,Compound,Activity on Rhinovirus Type 1A EC50
1,CCON=Cc1ccc(OCCCc2cc(C)no2)cc1 [Compound 108],>1 µg/mL
2,CCON=Cc1ccc(OCCC2CCN(c3ccc(Cl)nn3)CC2)cc1O [Compound 37],0.010 µg/mL
3,CON=Cc1cccc(OCCCC2CCN(c3cccnn3)CC2)c1 [Compound 105],0.126 µg/mL
4,CCON=Cc1ccc(OCCCC2CCN(c3ccc(Cl)nn3)CC2)cc1 [Compound 32],0.222 µg/mL
5,Cc1cc(CCCOc2c(C)cc(C=NOCC(F)(F)F)cc2C)on1 [Compound 124],0.719 µg/mL
6,C#CCON=Cc1ccc(OCCC2CCN(c3ccc(C)nn3)CC2)cc1 [Compound 88],0.005 µg/mL
7,CCON=Cc1ccc(OCCC2CCCN(c3ccc(Cl)nn3)C2)cc1 (centres unmarked) [Compound 142],0.055 µg/mL
8,CCON=Cc1ccc(OCCCC2CCN(c3ccc(C)nn3)CC2)cc1 [Compound 95],0.30 µg/mL
9,CCON=Cc1cc(C)c(OCCCCCCCc2cc(C)no2)c(C)c1 [Compound 121],0.05 µg/mL
10,CCO/N=C/c1ccc(OCCC2CCN(c3ccc(Cl)nn3)CC2)cc1OC [Compound 50],0.008 µg/mL
11,CCON=Cc1cc(C)c(OCCCCCc2cc(C)no2)c(C)c1 [Compound 122],0.181 µg/mL
12,CCON=Cc1ccc(OCCN2CCN(c3cccnn3)CC2)cc1 [Compound 64],0.05 µg/mL
13,C#CCON=Cc1cc(C)c(OCCCc2cc(C)no2)c(C)c1 [Compound 119],0.046 µg/mL
14,C=CCON=Cc1cccc(OCCCC2CCN(c3cccnn3)CC2)c1 [Compound 107],0.062 µg/mL
15,C=CCON=Cc1ccc(OCCC2CCN(c3ccc(OC)nn3)CC2)cc1 [Compound 63],0.06 µg/mL
16,CCON=Cc1cc(C)c(OCCCCc2cc(CC)no2)c(C)c1 [Compound 138],0.07 µg/mL
17,CON=Cc1ccc(OCCCC2CCN(c3ccc(C)nn3)CC2)cc1 [Compound 94],0.024 µg/mL
18,CCON=Cc1ccc(OCCC2CCN(c3ccc(C(F)(F)F)cn3)CC2)cc1 [Compound 84],0.05 µg/mL
19,CON=Cc1ccc(OCCN2CCN(c3ccc(C)nn3)CC2)cc1 [Compound 67],0.04 µg/mL
20,CCON=Cc1cc(C)c(OCCCCc2cc(C)no2)c(C)c1 [Compound 123],0.060 µg/mL

# Same assay, conditions: selectivity index = CC50 or MTC divided by EC50; HRV type 1A, MRC-5 cells
row,Compound,Activity on Rhinovirus Type 1A SI
1,CCON=Cc1ccc(OCCC2CCN(c3ccc(Cl)nn3)CC2)cc1O [Compound 37],>96.0
2,CON=Cc1cccc(OCCCC2CCN(c3cccnn3)CC2)c1 [Compound 105],>8
3,CCON=Cc1ccc(OCCCC2CCN(c3ccc(Cl)nn3)CC2)cc1 [Compound 32],>4.5
4,Cc1cc(CCCOc2c(C)cc(C=NOCC(F)(F)F)cc2C)on1 [Compound 124],>1
5,C#CCON=Cc1ccc(OCCC2CCN(c3ccc(C)nn3)CC2)cc1 [Compound 88],>172
6,CCON=Cc1ccc(OCCC2CCCN(c3ccc(Cl)nn3)C2)cc1 (centres unmarked) [Compound 142],>18
7,CCON=Cc1ccc(OCCCC2CCN(c3ccc(C)nn3)CC2)cc1 [Compound 95],>3
8,CCON=Cc1cc(C)c(OCCCCCCCc2cc(C)no2)c(C)c1 [Compound 121],>16
9,CCO/N=C/c1ccc(OCCC2CCN(c3ccc(Cl)nn3)CC2)cc1OC [Compound 50],>121.7
10,CCON=Cc1cc(C)c(OCCCCCc2cc(C)no2)c(C)c1 [Compound 122],>5
11,CCON=Cc1ccc(OCCN2CCN(c3cccnn3)CC2)cc1 [Compound 64],>17
12,C#CCON=Cc1cc(C)c(OCCCc2cc(C)no2)c(C)c1 [Compound 119],>21.4
13,C=CCON=Cc1cccc(OCCCC2CCN(c3cccnn3)CC2)c1 [Compound 107],>16
14,C=CCON=Cc1ccc(OCCC2CCN(c3ccc(OC)nn3)CC2)cc1 [Compound 63],>15
15,CCON=Cc1cc(C)c(OCCCCc2cc(CC)no2)c(C)c1 [Compound 138],>15
16,CON=Cc1ccc(OCCCC2CCN(c3ccc(C)nn3)CC2)cc1 [Compound 94],>41
17,CCON=Cc1ccc(OCCC2CCN(c3ccc(C(F)(F)F)cn3)CC2)cc1 [Compound 84],>19.6
18,CON=Cc1ccc(OCCN2CCN(c3ccc(C)nn3)CC2)cc1 [Compound 67],>20
19,CCON=Cc1cc(C)c(OCCCCc2cc(C)no2)c(C)c1 [Compound 123],>16

# Test system: human embryo lung (MRC-5) cells
# Test: Cytotoxicity (CC50 or MTC) in uninfected MRC-5 cells
# Conditions: unit not given
row,Compound,Activity on Rhinovirus Type 1A MTC
1,CCON=Cc1ccc(OCCCc2cc(C)no2)cc1 [Compound 108],>1
2,CCON=Cc1ccc(OCCC2CCN(c3ccc(Cl)nn3)CC2)cc1O [Compound 37],>1
3,CON=Cc1cccc(OCCCC2CCN(c3cccnn3)CC2)c1 [Compound 105],>1
4,CCON=Cc1ccc(OCCCC2CCN(c3ccc(Cl)nn3)CC2)cc1 [Compound 32],>1
5,Cc1cc(CCCOc2c(C)cc(C=NOCC(F)(F)F)cc2C)on1 [Compound 124],>1
6,C#CCON=Cc1ccc(OCCC2CCN(c3ccc(C)nn3)CC2)cc1 [Compound 88],>1
7,CCON=Cc1ccc(OCCC2CCCN(c3ccc(Cl)nn3)C2)cc1 (centres unmarked) [Compound 142],>1
8,CCON=Cc1ccc(OCCCC2CCN(c3ccc(C)nn3)CC2)cc1 [Compound 95],>1
9,CCON=Cc1cc(C)c(OCCCCCCCc2cc(C)no2)c(C)c1 [Compound 121],>1
10,CCO/N=C/c1ccc(OCCC2CCN(c3ccc(Cl)nn3)CC2)cc1OC [Compound 50],>1
11,CCON=Cc1cc(C)c(OCCCCCc2cc(C)no2)c(C)c1 [Compound 122],>1
12,CCON=Cc1ccc(OCCN2CCN(c3cccnn3)CC2)cc1 [Compound 64],>1
13,C#CCON=Cc1cc(C)c(OCCCc2cc(C)no2)c(C)c1 [Compound 119],>1
14,C=CCON=Cc1cccc(OCCCC2CCN(c3cccnn3)CC2)c1 [Compound 107],>1
15,C=CCON=Cc1ccc(OCCC2CCN(c3ccc(OC)nn3)CC2)cc1 [Compound 63],>1
16,CCON=Cc1cc(C)c(OCCCCc2cc(CC)no2)c(C)c1 [Compound 138],>1
17,CON=Cc1ccc(OCCCC2CCN(c3ccc(C)nn3)CC2)cc1 [Compound 94],>1
18,CCON=Cc1ccc(OCCC2CCN(c3ccc(C(F)(F)F)cn3)CC2)cc1 [Compound 84],>1
19,CON=Cc1ccc(OCCN2CCN(c3ccc(C)nn3)CC2)cc1 [Compound 67],>1
20,CCON=Cc1cc(C)c(OCCCCc2cc(C)no2)c(C)c1 [Compound 123],>1

# Test system: HRV type 2
# Test: Inhibition of viral cytopathic effect (CPE), visual scoring or neutral red, HRV type 2 in KB cells
# Format: cell-based, human rhinovirus
# Conditions: HRV type 2 in KB cells, CPE inhibition
row,Compound,Activity on Rhinovirus Type 2 EC50
1,CCON=Cc1ccc(OCCCc2cc(C)no2)cc1 [Compound 108],0.6 µg/mL
2,CCON=Cc1ccc(OCCC2CCN(c3ccc(Cl)nn3)CC2)cc1O [Compound 37],0.048 µg/mL
3,CCON=Cc1ccc(OCCCC2CCN(c3ccc(Cl)nn3)CC2)cc1 [Compound 32],0.014 µg/mL

# Same assay, conditions: selectivity index = CC50 or MTC divided by EC50; HRV type 2, KB cells
row,Compound,Activity on Rhinovirus Type 2 SI
1,CCON=Cc1ccc(OCCCc2cc(C)no2)cc1 [Compound 108],>1
2,CCON=Cc1ccc(OCCC2CCN(c3ccc(Cl)nn3)CC2)cc1O [Compound 37],>21
3,CCON=Cc1ccc(OCCCC2CCN(c3ccc(Cl)nn3)CC2)cc1 [Compound 32],>70
